# Source: the supplement of paper PMC10883282
# Counter-ions that a name gives are not always drawn. ± gives the standard deviation of the averaged measurements.
# System: SW1353
# Assay: relative viability vs DMSO control (72 h) (fraction); higher = more viable cells
# Summary of the method: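 Densities for seeding sarcoma cell lines into 384-well plates were set to give 80–90% confluence. After 24 h, 2.5 µl of serially diluted compound from source plates of 10 mM to 0.0002 mM went in, and plates stayed 72 h at 37 °C in 5% CO2 with 0.1% DMSO vehicle and a 5 µM positive control. Percent growth from ATPLite readings, averaged over up to triplicate wells, served as relative viability, rescaled so 1 means full and 0 means none.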
SMILES,relative viability (0.00017 µM),relative viability (0.00051 µM),relative viability (0.00152 µM),relative viability (0.00457 µM),relative viability (0.01372 µM),relative viability (0.04115 µM),relative viability (0.1235 µM),relative viability (0.3704 µM),relative viability (1.111 µM),relative viability (3.333 µM),relative viability (10 µM)
CC[C@H](Nc1ncnc2[nH]cnc12)c1nc2cccc(F)c2c(=O)n1-c1ccccc1 [Idelalisib],1.06 ± 0.038,1.05 ± 0.053,1.04 ± 0.048,1.05 ± 0.02,1.01 ± 0.043,0.969 ± 0.016,0.952 ± 0.045,0.931 ± 0.043,0.831 ± 0.042,0.752 ± 0.011,0.573 ± 0.027
COc1cccc2c1C(=O)c1c(O)c3c(c(O)c1C2=O)C[C@@](O)(C(=O)CO)C[C@@H]3O[C@H]1C[C@H](N)[C@H](O)[C@H](C)O1 [Doxorubicin Hydrochloride],0.948 ± 0.043,0.971 ± 0.029,0.958 ± 0.022,0.949 ± 0.013,0.882 ± 0.043,0.81 ± 0.013,0.661 ± 0.029,0.376 ± 0.017,0.162 ± 0.0035,0.181 ± 0.011,0.115 ± 0.0047
Cc1ccc(NC(=O)c2ccc(CN3CCN(C)CC3)cc2)cc1Nc1nc(-c2cccnc2)cs1 [Masitinib],1.03 ± 0.017,0.998 ± 0.012,0.986 ± 0.023,0.9886 ± 0.0079,0.989 ± 0.014,1.018 ± 0.0045,0.925 ± 0.006,0.86 ± 0.049,0.755 ± 0.047,0.478 ± 0.026,0.032 ± 0.0052
Cn1cnc2c(F)c(Nc3ccc(Br)cc3F)c(C(=O)NOCCO)cc21 [Binimetinib],1.06 ± 0.021,1.08 ± 0.032,1.04 ± 0.019,0.993 ± 0.018,0.981 ± 0.038,0.889 ± 0.065,0.841 ± 0.092,0.832 ± 0.019,0.806 ± 0.019,0.739 ± 0.026,0.661 ± 0.013
CC(=O)Nc1cccc(-n2c(=O)n(C3CC3)c(=O)c3c(Nc4ccc(I)cc4F)n(C)c(=O)c(C)c32)c1 [Trametinib],1.02 ± 0.025,1.01 ± 0.034,0.942 ± 0.024,0.862 ± 0.014,0.745 ± 0.014,0.69 ± 0.031,0.642 ± 0.029,0.613 ± 0.012,0.571 ± 0.025,0.5524 ± 0.0038,0.509 ± 0.019
Cc1cc(Nc2ncnc3ccc(NC4=NC(C)(C)CO4)cc23)ccc1Oc1ccn2ncnc2c1 [Tucatinib],1.06 ± 0.053,1.04 ± 0.03,1.06 ± 0.03,1.04 ± 0.043,0.989 ± 0.045,0.931 ± 0.026,0.936 ± 0.031,0.895 ± 0.026,0.855 ± 0.053,0.897 ± 0.064,0.936 ± 0.0098
CCN1CCN(Cc2ccc(Nc3ncc(F)c(-c4cc(F)c5nc(C)n(C(C)C)c5c4)n3)nc2)CC1 [Abemaciclib],0.958 ± 0.031,0.974 ± 0.017,0.976 ± 0.021,0.944 ± 0.011,0.9333 ± 0.0082,0.884 ± 0.033,0.778 ± 0.023,0.74 ± 0.021,0.699 ± 0.024,0.73 ± 0.046,0.721 ± 0.047
Cc1nc(-c2cn3c(n2)-c2ccc(-c4cnn(C(C)(C)C(N)=O)c4)cc2OCC3)n(C(C)C)n1 [Taselisib],0.925 ± 0.035,0.933 ± 0.02,0.953 ± 0.025,0.971 ± 0.013,0.884 ± 0.043,0.856 ± 0.031,0.785 ± 0.03,0.762 ± 0.014,0.69 ± 0.021,0.599 ± 0.021,0.469 ± 0.0077
C[C@@H]1COCCN1c1cc(-c2ccnn2C)c2ccnc(-c3ccn[nH]3)c2n1,0.988 ± 0.026,0.94 ± 0.015,0.974 ± 0.035,0.978 ± 0.065,0.933 ± 0.059,0.872 ± 0.028,0.769 ± 0.026,0.624 ± 0.027,0.507 ± 0.0081,0.41 ± 0.005,0.392 ± 0.014
CO[C@H]1C[C@@H]2CC[C@@H](C)[C@@](O)(O2)C(=O)C(=O)N2CCCC[C@H]2C(=O)O[C@H]([C@H](C)C[C@@H]2CC[C@@H](OP(C)(C)=O)[C@H](OC)C2)CC(=O)[C@H](C)/C=C(\C)[C@@H](O)[C@@H](OC)C(=O)[C@H](C)C[C@H](C)/C=C/C=C/C=C/1C [Ridaforolimus],0.961 ± 0.028,0.905 ± 0.041,0.805 ± 0.012,0.771 ± 0.011,0.747 ± 0.029,0.742 ± 0.033,0.723 ± 0.016,0.72 ± 0.035,0.702 ± 0.012,0.707 ± 0.012,0.682 ± 0.023
CCc1cc2c(cc1N1CCC(N3CCOCC3)CC1)C(C)(C)c1[nH]c3cc(C#N)ccc3c1C2=O [Alectinib],0.987 ± 0.02,0.993 ± 0.027,1.01 ± 0.019,1.002 ± 0.0077,0.996 ± 0.038,1.04 ± 0.012,0.988 ± 0.057,1.07 ± 0.032,0.9953 ± 0.0051,1.06 ± 0.058,1.14 ± 0.016
COCc1c(-c2cc3cc(C)cc(OC)c3s2)c2c(N)ncnn2c1CN1CCNC(=O)C1 [Rogaratinib],1.075 ± 0.01,1.03 ± 0.021,0.977 ± 0.025,1.01 ± 0.036,0.964 ± 0.032,0.901 ± 0.028,0.879 ± 0.0097,0.819 ± 0.031,0.795 ± 0.014,0.757 ± 0.013,0.691 ± 0.021
C[C@@H]1CCN(C(=O)CC#N)C[C@@H]1N(C)c1ncnc2[nH]ccc12 [Tofacitinib],1.08 ± 0.025,1.07 ± 0.06,1.03 ± 0.036,1.04 ± 0.027,0.986 ± 0.039,1.02 ± 0.031,0.989 ± 0.033,1.01 ± 0.034,0.998 ± 0.054,1 ± 0.022,0.884 ± 0.035
O=C(Cc1ccc(-c2ccc(OCCN3CCOCC3)cc2)cn1)NCc1ccccc1 [KX2-391],1.06 ± 0.023,1.09 ± 0.031,1.02 ± 0.014,1.01 ± 0.035,0.962 ± 0.01,0.952 ± 0.011,0.607 ± 0.037,0.446 ± 0.024,0.425 ± 0.018,0.462 ± 0.014,0.458 ± 0.019
C[C@@H](c1ccc2nccn2c1)n1nnc2ncc(-c3cnn(C)c3)nc21 [Volitinib],1.01 ± 0.033,1.01 ± 0.011,0.998 ± 0.028,1.02 ± 0.019,1.02 ± 0.044,1 ± 0.048,1.01 ± 0.045,0.976 ± 0.026,1.03 ± 0.016,0.987 ± 0.035,1.02 ± 0.023
C[C@]1(O)C[C@@H](c2nc(-c3ccc4ccc(-c5ccccc5)nc4c3)c3c(N)nccn32)C1 [Linsitinib],1.03 ± 0.017,1 ± 0.024,1.03 ± 0.03,0.977 ± 0.024,1.03 ± 0.017,1.01 ± 0.014,0.978 ± 0.041,0.967 ± 0.029,0.9847 ± 0.0087,0.949 ± 0.05,0.866 ± 0.024
COc1cc2c(Oc3ccc4[nH]c(C)cc4c3F)ncnc2cc1OCCCN1CCCC1 [Cediranib],0.971 ± 0.026,0.993 ± 0.025,1.004 ± 0.0039,0.999 ± 0.024,0.954 ± 0.011,0.949 ± 0.016,0.908 ± 0.013,0.848 ± 0.035,0.79 ± 0.034,0.751 ± 0.11,0.0589 ± 0.0064
CC(C)(C)c1cc(NC(=O)Nc2ccc(-c3cn4c(n3)sc3cc(OCCN5CCOCC5)ccc34)cc2)no1 [Quizartinib],1.02 ± 0.03,1.02 ± 0.047,1.02 ± 0.057,1.03 ± 0.047,1.01 ± 0.059,1.03 ± 0.043,1.02 ± 0.046,1.01 ± 0.031,0.965 ± 0.044,0.874 ± 0.02,0.981 ± 0.035
COc1cc2/c(=N/c3ccc(Br)cc3F)nc[nH]c2cc1OCC1CCN(C)CC1 [Vandetanib],0.952 ± 0.029,0.962 ± 0.017,0.941 ± 0.04,0.988 ± 0.018,0.976 ± 0.029,0.952 ± 0.032,0.957 ± 0.045,0.9245 ± 0.0051,0.92 ± 0.013,0.558 ± 0.019,0.0143 ± 0.0022
